Laboratory results published in patent publication US5620890A, “Monoclonal antibodies to hygromycin B and the method of making the same” (The United States of America as represented by the …, priority 1995, dated 1997).

Columns and labels:
Type in all cases: binding, mouse
[1] = test system: monoclonal antibody HB-13 (IgG1, kappa; hybridoma ATCC HB-12167); test: Competitive indirect ELISA (CI-ELISA), solid-phase antigen HB-SMPB-S-BSA; details: for cross-reactivity with the HB-13 antibody: competitor concentration of 50 ppm; for average IC50: free competitor in CI-ELISA
Protocol: The supernatant culture fluid from the cloned hybridomas may also be screened to select for those producing antibodies having a high affinity for hygromycin B. Affinity may be measured using a variety of well known techniques, such as ELISA, RIA or equilibrium dialysis using labelled hygromycin B. Competitive indirect ELISA (CI-ELISA) is preferred, and is conducted at a final antibody concentration (dilution from tissue culture supernatant) to give 50% of maximal binding to a hygromycin B coated substrate or assay well. In accordance with this embodiment, the antibody containing supernatant is added to a hygromycin B conjugate-coated solid substrate such as the wells of an assay plate, together with a range of concentrations of free hygromycin B as a competitor. Following incubation and washing, bound antibody in the wells is determined in the same manner as the indirect-ELISA. Percent inhibition may be calculated as (1-B/Bo)×100 where B is the optical density (OD) of a well with a competitor and Bo is the mean OD of the wells without competitor (control). […] However, for even greater accuracy, the affinity may be alternatively measured at 50% inhibition (IC50).
A competitive indirect ELISA (CI-ELISA) was used to determine the sensitivity and specificity of the monoclonal antibodies for binding hygromycin B. Microtiter plates were coated with HB-SMPB-S-BSA (400 ng/well) and blocked with 3% non-fat milk solution as described above. After washing five times with 0.05% Tween 20 in distilled water, 100 μL of hygromycin B standard in assay buffer (0.1M Tris, 0.15M NaCl, 0.05% Tween 20, 1% BSA, pH 7.5) and 100 μL antiserum (diluted 1:60 in assay buffer) were added to each well and incubated for 90 min at 37° C. Unbound antibody was removed by washing five times with the 0.05% Tween 20-water solution. Next, 50 μL of goat anti-mouse IgG-peroxidase conjugate (1:500 dilution) was added to each well. After a 60 min incubation at 37° C., the plates were washed ten times with 0.05% Tween 20, and bound antibody-peroxidase conjugate was determined using ABTS. Absorbance was read at 405 nm.
Each point represents the average of 6 replicates. […] The mean intraassay IC50 coefficient of variation (CV) was 7.8% (n=3), while a mean interassay IC50 coefficient of variation of 7.0% (n=3) was observed. […] HB-13 was also characterized as to its ability to recognize related aminoglycoside antibiotics, including spiramycin, gentamicin, kanamycin, amikacin and tylosin.

[2] = test system: monoclonal antibodies to hygromycin B obtained with the short immunization protocol; test: Competitive indirect ELISA (CI-ELISA); details: range over antibodies from short immunization protocol
Protocol: (§1) The supernatant culture fluid from the cloned hybridomas may also be screened to select for those producing antibodies having a high affinity for hygromycin B. Affinity may be measured using a variety of well known techniques, such as ELISA, RIA or equilibrium dialysis using labelled hygromycin B. Competitive indirect ELISA (CI-ELISA) is preferred, and is conducted at a final antibody concentration (dilution from tissue culture supernatant) to give 50% of maximal binding to a hygromycin B coated substrate or assay well. […]
In the short immunization schedule, female BALB/c mice (6-8 weeks of age) were injected intraperitoneally (ip) with 75 μg of HB-SMPB-S-OVA (in 0.2 mL physiological saline/RIBI adjuvant). […] One week after the second injection, the mice were bled and serum titers were determined. […]
(§2) A competitive indirect ELISA (CI-ELISA) was used to determine the sensitivity and specificity of the monoclonal antibodies for binding hygromycin B. Microtiter plates were coated with HB-SMPB-S-BSA (400 ng/well) and blocked with 3% non-fat milk solution as described above. […] After a 60 min incubation at 37° C., the plates were washed ten times with 0.05% Tween 20, and bound antibody-peroxidase conjugate was determined using ABTS. Absorbance was read at 405 nm. […]

[3] = test system: monoclonal antibodies to hygromycin B obtained with the extended immunization protocol (including HB-3, HB-7, HB-13); test: Competitive indirect ELISA (CI-ELISA); details: range over antibodies from extended immunization protocol
Protocol: as §1
In the extended immunization schedule, female BALB/c mice were immunized with 75 μg ip injections every two weeks for a total of three injections. On day 35, the mice were bled so that serum titers and antibody specificities could be determined. […]
as §2

Row | Compound | cross-reactivity with the HB-13 antibody [1] | further results
1 | NCC[C@H](O)C(=O)N[C@@H]1C[C@H](N)[C@@H](O[C@H]2O[C@H](CN)[C@@H](O)[C@H](O)[C@H]2O)[C@H](O)[C@H]1O[C@H]1O[C@H](CO)[C@@H](O)[C@H](N)[C@H]1O [amikacin] | None of these compounds were observed to cross-react | 
2 | CNC1CC(N)C(O)C(OC2OC(CO)C(O)C3OC4(OC(C(N)CO)C(O)C(O)C4O)OC23)C1O (stereo not drawn) [hygromycin B] |  | average IC50 ([1]; each point average of 6 replicates): 76.2 ng/well; average IC50 ([1]; same value expressed as ppm): 0.762 ppm; IC50 [2]: 10-100 ppm; IC50 [3]: 0.7-1 ppm
3 | NC[C@H]1O[C@H](O[C@H]2[C@H](O)[C@@H](O[C@H]3O[C@H](CO)[C@@H](O)[C@H](N)[C@H]3O)[C@H](N)C[C@@H]2N)[C@H](O)[C@@H](O)[C@@H]1O [kanamycin] | None of these compounds were observed to cross-react | 
4 | CC[C@H]1OC(=O)C[C@@H](O)[C@H](C)[C@@H](O[C@@H]2O[C@H](C)[C@@H](O[C@H]3C[C@@](C)(O)[C@@H](O)[C@H](C)O3)[C@H](N(C)C)[C@H]2O)[C@@H](CC=O)C[C@@H](C)C(=O)/C=C/C(C)=C/[C@@H]1CO[C@@H]1O[C@H](C)[C@@H](O)[C@@H](OC)[C@H]1OC [tylosin] | None of these compounds were observed to cross-react | 
5 | gentamicin | None of these compounds were observed to cross-react | 
6 | spiramycin | None of these compounds were observed to cross-react | 
